# Assay results reported in ChEMBL document CHEMBL5346973 (J Med Chem, 2023).
# Where a SMILES comes first, the peptide text is derived from it.
# Key:
# [1] = target: Nicotinic acetylcholine receptor alpha9/alpha10 (Rattus norvegicus, UniProt P43144+Q9JLB5); experiment: Antagonist activity at rat alpha9alpha10 nACh receptor expressed in Xenopus oocyte assessed as inhibition of acetylcholine-induced response at -70 mV holding potential by voltage-clamp based electrophysiological assay; format: cell-based
# [2] = target: Neuronal acetylcholine receptor subunit alpha-7 (Rattus norvegicus, UniProt Q05941); experiment: Antagonist activity at rat alpha7 nACh receptor expressed in Xenopus oocyte assessed as inhibition of acetylcholine-induced response at -70 mV holding potential by voltage-clamp based electrophysiological assay; format: cell-based
# Sequence of Neuronal acetylcholine receptor subunit alpha-7 (Q05941 whole entry): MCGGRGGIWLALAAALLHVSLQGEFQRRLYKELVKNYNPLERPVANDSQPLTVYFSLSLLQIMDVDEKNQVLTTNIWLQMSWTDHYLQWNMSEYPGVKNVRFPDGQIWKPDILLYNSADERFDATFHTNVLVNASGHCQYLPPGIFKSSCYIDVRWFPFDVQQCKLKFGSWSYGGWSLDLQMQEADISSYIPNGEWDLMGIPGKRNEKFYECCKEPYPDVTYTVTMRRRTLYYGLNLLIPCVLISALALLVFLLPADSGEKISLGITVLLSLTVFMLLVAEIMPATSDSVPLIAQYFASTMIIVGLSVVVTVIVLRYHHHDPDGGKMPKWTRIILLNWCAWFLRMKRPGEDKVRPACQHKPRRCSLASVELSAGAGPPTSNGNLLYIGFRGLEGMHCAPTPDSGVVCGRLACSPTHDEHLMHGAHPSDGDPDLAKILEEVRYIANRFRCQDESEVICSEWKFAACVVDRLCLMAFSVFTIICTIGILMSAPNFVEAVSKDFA
# Sequence of Nicotinic acetylcholine receptor alpha9/alpha10 (P43144 whole entry): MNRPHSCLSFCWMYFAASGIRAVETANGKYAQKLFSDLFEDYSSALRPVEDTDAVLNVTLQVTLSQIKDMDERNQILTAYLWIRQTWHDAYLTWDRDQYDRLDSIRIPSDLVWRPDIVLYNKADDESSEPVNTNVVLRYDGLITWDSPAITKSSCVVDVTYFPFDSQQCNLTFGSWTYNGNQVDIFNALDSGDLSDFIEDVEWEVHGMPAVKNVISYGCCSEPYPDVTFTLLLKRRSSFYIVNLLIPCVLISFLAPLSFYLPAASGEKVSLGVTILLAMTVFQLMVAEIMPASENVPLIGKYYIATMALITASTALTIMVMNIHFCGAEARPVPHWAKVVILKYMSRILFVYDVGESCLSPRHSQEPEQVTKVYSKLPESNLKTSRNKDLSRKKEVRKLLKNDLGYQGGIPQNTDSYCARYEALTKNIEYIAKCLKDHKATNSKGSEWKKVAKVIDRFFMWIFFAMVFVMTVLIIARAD
# Sequence of Nicotinic acetylcholine receptor alpha9/alpha10 (Q9JLB5 whole entry): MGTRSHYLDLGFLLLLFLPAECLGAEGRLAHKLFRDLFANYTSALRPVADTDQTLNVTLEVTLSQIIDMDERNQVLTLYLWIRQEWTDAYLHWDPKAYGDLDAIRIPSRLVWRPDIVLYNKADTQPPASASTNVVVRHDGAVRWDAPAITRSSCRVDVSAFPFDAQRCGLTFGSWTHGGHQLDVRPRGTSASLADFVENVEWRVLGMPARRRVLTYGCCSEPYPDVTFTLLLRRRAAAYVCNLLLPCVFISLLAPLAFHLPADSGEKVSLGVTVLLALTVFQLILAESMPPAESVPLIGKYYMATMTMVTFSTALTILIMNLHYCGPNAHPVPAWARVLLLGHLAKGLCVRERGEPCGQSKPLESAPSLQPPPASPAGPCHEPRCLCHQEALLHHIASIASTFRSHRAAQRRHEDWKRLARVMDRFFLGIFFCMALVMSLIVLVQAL
Structure (SMILES),IC50 [1] [nM],IC50 [2] [nM]
"CC[C@H](C)[C@@H]1NC(=O)[C@H](CCCNC(=N)N)NC(=O)[C@H](CCCNC(=N)N)NC(=O)[C@@H](NC(=O)[C@H](Cc2ccc(O)cc2)NC(=O)[C@H](CCCNC(=N)N)NC(=O)[C@H](CCCNC(=N)N)NC(=O)[C@H](CCCNC(=N)N)NC(=O)[C@H](CCCNC(=N)N)NC(=O)[C@H](CC(=O)O)NC(=O)[C@H](Cc2ccc(O)cc2)NC(=O)[C@@H]2CCCN2C(=O)[C@H](CO)NC(=O)[C@H](CCCNC(=N)N)NC(=O)[C@@H]2CSSC[C@H](NC(=O)[C@@H](N)[C@@H](C)O)C(=O)N[C@@H](CCCNC(=N)N)C(=O)N[C@@H](CO)C(=O)N[C@@H](C)C(=O)NCC(=O)N[C@@H](CCCNC(=N)N)C(=O)N[C@@H](Cc3ccc(O)cc3)C(=O)N2)CSSC[C@@H](C(=O)N[C@H](C(=O)O)C(C)C)NC(=O)[C@H](C)NC(=O)[C@H](CC(=O)O)NC(=O)[C@H]([C@@H](C)O)NC1=O (HELM PEPTIDE1{T.C.R.S.A.G.R.Y.C.R.S.P.Y.D.R.R.R.R.Y.C.R.R.I.T.D.A.C.V}$PEPTIDE1,PEPTIDE1,2:R3-9:R3|PEPTIDE1,PEPTIDE1,20:R3-27:R3$$$V2.0)",27,1450
CC[C@H](C)[C@@H]1NC(=O)[C@H](C)NC(=O)[C@H](CCCNC(=N)N)NC(=O)[C@@H]2CSSC[C@H](NC(=O)[C@H](Cc3ccc(O)cc3)NC(=O)[C@H](CCCNC(=N)N)NC(=O)CNC(=O)[C@H](CO)NC(=O)[C@H](CO)NC(=O)[C@H](CCCNC(=N)N)NC(=O)[C@@H](NC(=O)[C@@H](N)[C@@H](C)O)CSSC[C@@H](C(=O)N[C@H](C(=O)O)C(C)C)NC(=O)[C@H](C)NC(=O)[C@H](CC(=O)O)NC(=O)[C@H]([C@@H](C)O)NC1=O)C(=O)N[C@@H](CCCNC(=N)N)C(=O)N[C@@H](CO)C(=O)N1CCC[C@H]1C(=O)N[C@@H](Cc1ccc(O)cc1)C(=O)N[C@@H](CC(=O)O)C(=O)N[C@@H](CCCNC(=N)N)C(=O)N[C@@H](CCCNC(=N)N)C(=O)N[C@@H](CCCNC(=N)N)C(=O)N[C@@H](CCCNC(=N)N)C(=O)N[C@@H](Cc1ccc(O)cc1)C(=O)N2,185,> 10000
CC[C@H](C)[C@@H]1NC(=O)[C@H](CCCNC(=N)N)NC(=O)[C@H](CCCNC(=N)N)NC(=O)[C@@H]2CSSC[C@H](NC(=O)[C@H](Cc3ccc(O)cc3)NC(=O)[C@H](CCCNC(=N)N)NC(=O)CNC(=O)[C@H](CO)NC(=O)[C@H](CO)NC(=O)[C@H](CCCNC(=N)N)NC(=O)[C@@H](NC(=O)[C@@H](N)[C@@H](C)O)CSSC[C@@H](C(=O)N[C@H](C(=O)O)C(C)C)NC(=O)[C@H](C)NC(=O)[C@H](CC(=O)O)NC(=O)[C@H]([C@@H](C)O)NC1=O)C(=O)N[C@@H](CCCNC(=N)N)C(=O)N[C@@H](CO)C(=O)N1CCC[C@H]1C(=O)N[C@@H](Cc1ccc(O)cc1)C(=O)N[C@@H](CC(=O)O)C(=O)N[C@@H](CCCNC(=N)N)C(=O)N[C@@H](CCCNC(=N)N)C(=O)N[C@@H](CCCNC(=N)N)C(=O)N[C@@H](CCCNC(=N)N)C(=O)N[C@@H](C)C(=O)N2,38,7640
"CC[C@H](C)[C@@H]1NC(=O)[C@H](CCCNC(=N)N)NC(=O)[C@H](CCCNC(=N)N)NC(=O)[C@@H](NC(=O)[C@H](Cc2ccc(O)cc2)NC(=O)[C@H](CCCNC(=N)N)NC(=O)[C@H](CCCNC(=N)N)NC(=O)[C@H](CCCNC(=N)N)NC(=O)[C@H](CCCNC(=N)N)NC(=O)[C@H](CC(=O)O)NC(=O)[C@H](C)NC(=O)[C@@H]2CCCN2C(=O)[C@H](CO)NC(=O)[C@H](CCCNC(=N)N)NC(=O)[C@@H]2CSSC[C@H](NC(=O)[C@@H](N)[C@@H](C)O)C(=O)N[C@@H](CCCNC(=N)N)C(=O)N[C@@H](CO)C(=O)N[C@@H](CO)C(=O)NCC(=O)N[C@@H](CCCNC(=N)N)C(=O)N[C@@H](Cc3ccc(O)cc3)C(=O)N2)CSSC[C@@H](C(=O)N[C@H](C(=O)O)C(C)C)NC(=O)[C@H](C)NC(=O)[C@H](CC(=O)O)NC(=O)[C@H]([C@@H](C)O)NC1=O (HELM PEPTIDE1{T.C.R.S.S.G.R.Y.C.R.S.P.A.D.R.R.R.R.Y.C.R.R.I.T.D.A.C.V}$PEPTIDE1,PEPTIDE1,2:R3-9:R3|PEPTIDE1,PEPTIDE1,20:R3-27:R3$$$V2.0)",11,3030
CC[C@H](C)[C@@H]1NC(=O)[C@H](CCCNC(=N)N)NC(=O)[C@H](CCCNC(=N)N)NC(=O)[C@@H]2CSSC[C@H](NC(=O)[C@H](Cc3ccc(O)cc3)NC(=O)[C@H](CCCNC(=N)N)NC(=O)CNC(=O)[C@H](CO)NC(=O)[C@H](CO)NC(=O)[C@H](CCCNC(=N)N)NC(=O)[C@@H](NC(=O)[C@@H](N)[C@@H](C)O)CSSC[C@@H](C(=O)N[C@H](C(=O)O)C(C)C)NC(=O)[C@H](C)NC(=O)[C@H](CC(=O)O)NC(=O)[C@H](C)NC1=O)C(=O)N[C@@H](CCCNC(=N)N)C(=O)N[C@@H](CO)C(=O)N1CCC[C@H]1C(=O)N[C@@H](Cc1ccc(O)cc1)C(=O)N[C@@H](CC(=O)O)C(=O)N[C@@H](CCCNC(=N)N)C(=O)N[C@@H](CCCNC(=N)N)C(=O)N[C@@H](CCCNC(=N)N)C(=O)N[C@@H](CCCNC(=N)N)C(=O)N[C@@H](Cc1ccc(O)cc1)C(=O)N2,36,7130
"CC[C@H](C)[C@@H]1NC(=O)[C@H](CCCNC(=N)N)NC(=O)[C@H](CCCNC(=N)N)NC(=O)[C@@H]2CSSC[C@H](NC(=O)[C@H](Cc3ccc(O)cc3)NC(=O)[C@H](CCCNC(=N)N)NC(=O)CNC(=O)[C@H](CO)NC(=O)[C@H](CO)NC(=O)[C@H](CCCNC(=N)N)NC(=O)[C@@H](NC(=O)[C@@H](N)[C@@H](C)O)CSSC[C@@H](C(=O)N[C@H](C(=O)O)C(C)C)NC(=O)[C@H](C)NC(=O)[C@H](CC(=O)O)NC(=O)[C@H]([C@@H](C)O)NC1=O)C(=O)N[C@@H](C)C(=O)N[C@@H](CO)C(=O)N1CCC[C@H]1C(=O)N[C@@H](Cc1ccc(O)cc1)C(=O)N[C@@H](CC(=O)O)C(=O)N[C@@H](CCCNC(=N)N)C(=O)N[C@@H](CCCNC(=N)N)C(=O)N[C@@H](CCCNC(=N)N)C(=O)N[C@@H](CCCNC(=N)N)C(=O)N[C@@H](Cc1ccc(O)cc1)C(=O)N2 (HELM PEPTIDE1{T.C.R.S.S.G.R.Y.C.A.S.P.Y.D.R.R.R.R.Y.C.R.R.I.T.D.A.C.V}$PEPTIDE1,PEPTIDE1,2:R3-27:R3|PEPTIDE1,PEPTIDE1,9:R3-20:R3$$$V2.0)",35,8760
CC[C@H](C)[C@@H]1NC(=O)[C@H](CCCNC(=N)N)NC(=O)[C@H](CCCNC(=N)N)NC(=O)[C@@H]2CSSC[C@H](NC(=O)[C@H](Cc3ccc(O)cc3)NC(=O)[C@H](CCCNC(=N)N)NC(=O)CNC(=O)[C@H](CO)NC(=O)[C@H](CO)NC(=O)[C@H](CCCNC(=N)N)NC(=O)[C@@H](NC(=O)[C@@H](N)[C@@H](C)O)CSSC[C@@H](C(=O)N[C@H](C(=O)O)C(C)C)NC(=O)[C@H](C)NC(=O)[C@H](CC(=O)O)NC(=O)[C@H]([C@@H](C)O)NC1=O)C(=O)N[C@@H](CCCNC(=N)N)C(=O)N[C@@H](CO)C(=O)N1CCC[C@H]1C(=O)N[C@@H](Cc1ccc(O)cc1)C(=O)N[C@@H](CC(=O)O)C(=O)N[C@@H](CCCNC(=N)N)C(=O)N[C@@H](C)C(=O)N[C@@H](CCCNC(=N)N)C(=O)N[C@@H](CCCNC(=N)N)C(=O)N[C@@H](Cc1ccc(O)cc1)C(=O)N2,83,> 10000
CC[C@H](C)[C@@H]1NC(=O)[C@H](CCCNC(=N)N)NC(=O)[C@H](CCCNC(=N)N)NC(=O)[C@@H](NC(=O)[C@H](Cc2ccc(O)cc2)NC(=O)[C@H](CCCNC(=N)N)NC(=O)[C@H](CCCNC(=N)N)NC(=O)[C@H](CCCNC(=N)N)NC(=O)[C@H](C)NC(=O)[C@H](CC(=O)O)NC(=O)[C@H](Cc2ccc(O)cc2)NC(=O)[C@@H]2CCCN2C(=O)[C@H](CO)NC(=O)[C@H](CCCNC(=N)N)NC(=O)[C@@H]2CSSC[C@H](NC(=O)[C@H](N)[C@H](C)O)C(=O)N[C@@H](CCCNC(=N)N)C(=O)N[C@@H](CO)C(=O)N[C@@H](CO)C(=O)NCC(=O)N[C@@H](CCCNC(=N)N)C(=O)N[C@@H](Cc3ccc(O)cc3)C(=O)N2)CSSC[C@@H](C(=O)N[C@H](C(=O)O)C(C)C)NC(=O)[C@H](C)NC(=O)[C@H](CC(=O)O)NC(=O)[C@H]([C@@H](C)O)NC1=O,32,3280
CC[C@H](C)[C@@H]1NC(=O)[C@H](C)NC(=O)[C@H](CCCNC(=N)N)NC(=O)[C@@H](NC(=O)[C@H](Cc2ccc(O)cc2)NC(=O)[C@H](CCCNC(=N)N)NC(=O)[C@H](CCCNC(=N)N)NC(=O)[C@H](CCCNC(=N)N)NC(=O)[C@H](CCCNC(=N)N)NC(=O)[C@H](CC(=O)O)NC(=O)[C@H](Cc2ccc(O)cc2)NC(=O)[C@@H]2CCCN2C(=O)[C@H](CO)NC(=O)[C@H](CCCNC(=N)N)NC(=O)[C@@H]2CSSC[C@H](NC(=O)[C@@H](N)[C@@H](C)O)C(=O)N[C@@H](CCCNC(=N)N)C(=O)N[C@@H](CO)C(=O)N[C@@H](CO)C(=O)NCC(=O)N[C@@H](CCCNC(=N)N)C(=O)N[C@@H](Cc3ccc(O)cc3)C(=O)N2)CSSC[C@@H](C(=O)N[C@H](C(=O)O)C(C)C)NC(=O)[C@H](C)NC(=O)[C@H](CC(=O)O)NC(=O)[C@H]([C@@H](C)O)NC1=O,54,600
CC(C)[C@H](NC(=O)[C@@H]1CSSC[C@H](NC(=O)[C@H](Cc2ccc(O)cc2)NC(=O)[C@H](CCCNC(=N)N)NC(=O)[C@H](CCCNC(=N)N)NC(=O)[C@H](CCCNC(=N)N)NC(=O)[C@H](CCCNC(=N)N)NC(=O)[C@H](CC(=O)O)NC(=O)[C@H](Cc2ccc(O)cc2)NC(=O)[C@@H]2CCCN2C(=O)[C@H](CO)NC(=O)[C@H](CCCNC(=N)N)NC(=O)[C@@H]2CSSC[C@H](NC(=O)[C@@H](N)[C@@H](C)O)C(=O)N[C@@H](CCCNC(=N)N)C(=O)N[C@@H](CO)C(=O)N[C@@H](CO)C(=O)NCC(=O)N[C@@H](CCCNC(=N)N)C(=O)N[C@@H](Cc3ccc(O)cc3)C(=O)N2)C(=O)N[C@@H](CCCNC(=N)N)C(=O)N[C@@H](CCCNC(=N)N)C(=O)N[C@@H](C)C(=O)N[C@@H]([C@@H](C)O)C(=O)N[C@@H](CC(=O)O)C(=O)N[C@@H](C)C(=O)N1)C(=O)O,16,640
